The values below come from US6420572B1, “Synthetic methods for preparation of protected proanthocyanidin(s)” (Mars, Incorporated, priority 1997, dated 2002).

“Also recorded” adds a separate entry of the source. Read-outs that look alike come from different tables or passages of the source.

For this data set, the system named is human breast cancer cell lines (MDA MB 231, MDA MB 435, MCF-7). Kind of data set: Cytotoxic activity: cell proliferation (crystal violet staining) of human breast cancer cell lines. As to the method:
All human tumor cell lines were obtained from the American Type Culture Collection. Cells were grown as monolayers in IMEM containing 10% fetal bovine serum without antibiotics. The cells were maintained in a humidified, 5% CO2 atmosphere at 37° C.
After trypsinization, the cells were counted and adjusted to a concentration of 1,000-2,000 cells per 100 mL. Cell proliferation was determined by plating the cells (1,000-2,000 cells/well) in a 96 well microtiter plate. After addition of 100 μL cells per well, the cells were allowed to attach for 24 hours. […] The polyphenols were dissolved in media at a 2 fold concentration and 100 μL of each solution was added in triplicate wells. On consecutive days, the plates were stained with 50 μL crystal violet (2.5 g crystal violet dissolved in 125 mL methanol, 375 mL water), for 15 min. The stain was removed and the plate was gently immersed into cold water to remove excess stain. The washings were repeated two more times, and the plates allowed to dry. The remaining stain was solubilized by adding 100 μL of 0.1 M sodium citrate/50% ethanol to each well. After solubilization, the number of cells were quantitated on an ELISA plate reader at 540 nm (reference filter at 410 nm).
Error bars represent +/− standard deviation of three replicate measurements.

Where [1] appears, read: breast cancer cell lines investigated, four days, various μg/mL concentrations, FIG. 1(a)-(d).

`Oc1cc(O)c2c(c1)O[C@H](c1ccc(O)c(O)c1)[C@H](O)C2` [monomer (epicatechin), epicatechin, reference compound]: under setting [1], the “cytotoxicity (cancer cell line growth at the end of four days as percent growth of the control)” value is given as “no cytotoxicity”.
As to `Oc1cc(O)c2c(c1)O[C@H](c1ccc(O)c(O)c1)[C@H](O)[C@H]2c1c(O)cc(O)c2c1O[C@H](c1ccc(O)c(O)c1)[C@H](O)C2` [synthetic epicatechin dimer, EC-(4β→8)-EC], the “cytotoxicity (cancer cell line growth at the end of four days as percent growth of the control)” value is on record as “no cytotoxicity”.
In the case of `O=C(OC1Cc2c(O)cc(O)c(C3c4c(O)cc(O)c(C5c6c(O)cc(O)cc6OC(c6ccc(O)c(O)c6)C5OC(=O)c5cc(O)c(O)c(O)c5)c4OC(c4ccc(O)c(O)c4)C3OC(=O)c3cc(O)c(O)c(O)c3)c2OC1c1ccc(O)c(O)c1)c1cc(O)c(O)c(O)c1` (stereo not drawn) [synthetic epicatechin trimer trisgallate, [EC-3-O-galloyl-(4β→8)]2-EC-3-O-gallate], the “cytotoxicity (cancer cell line growth at the end of four days as percent growth of the control)” value under setting [1] is on record as “cytotoxic effect equivalent to the pentamer and/or epigallocatechin gallate”. Besides, the “antineoplastic activity against several human breast cancer cell lines (comparison in words)” value (in vitro assessment of Example 25) is “activity equivalent to the pentamer; also recorded: greater antineoplastic activity when compared to the underivatized dimer and trimer”.
